Experiments:
[1] = target: T1, Avi-KRAS WT (1-169) GppNHp/RAF1 RBD-3xFLAG (52-151) (Homo sapiens, UniProt P01116); assay: Raf1-KRAS WT-GppNHP disruption HTRF assay (Biological Example 1); format: binding; conditions: KRAS WT-GppNHp/RAF1 RBD HTRF
T1 construct: Avi-KRAS WT (1-169)
Method in brief: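 Percent activity versus DMSO (100%) was derived from HTRF signal after KRAS–RAF1 RBD protein mix was incubated 1 h at room temperature with shaking and detection reagents were added for a further 1 h.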

[2] = target: T2, Avi-KRAS G12D (2-169) GTP/RAF1 RBD-3xFLAG (51-131) (Homo sapiens, UniProt P01116, G12D); assay: Raf1-KRAS G12D-GTP disruption HTRF assay (Biological Example 3); format: binding; conditions: KRAS G12D, GTP-loaded
T2 construct: Avi-KRAS G12D (2-169)
T2 sequence (P01116 2-169 isoform P01116-2 G12D): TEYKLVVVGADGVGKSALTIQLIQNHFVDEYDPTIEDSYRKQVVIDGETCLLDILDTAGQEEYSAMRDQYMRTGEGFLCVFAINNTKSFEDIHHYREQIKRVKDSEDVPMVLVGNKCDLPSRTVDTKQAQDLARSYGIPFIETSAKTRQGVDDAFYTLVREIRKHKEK
Method in brief: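 HTRF PPI read-out (ex 320 nm, em 615 nm) after 1 h RT incubation with shaking; data as % activity vs DMSO (100%), IC50 from curve fit. Complex 50 nM, RBD reagent 75 nM; compound 30-0.005 μM, 3-fold.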

[3] = tested on: SW620 cells (KRAS G12V); assay: Cell-based pERK HTRF assay in SW620 cell (Biological Example 4)
Method in brief: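 Read-out: HTRF pERK signal (excitation 320 nm, emission 615 nm) from lysates of SW620 cells after 4 h compound exposure. Dose range was 9 points, half-log steps from 1 μM, in 0.25% DMSO; antibody incubation ran 4–24 h at room temperature.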

[4] = Homo sapiens, SW-620, SW620 (KRAS G12V) cells
[5] = Homo sapiens, SW-620, SW620 (KRAS G12V) cells, pERK HTRF
[6] = SW620 (KRAS G12V) cells, pERK HTRF

T1 sequence (P01116 1-169 isoform P01116-2): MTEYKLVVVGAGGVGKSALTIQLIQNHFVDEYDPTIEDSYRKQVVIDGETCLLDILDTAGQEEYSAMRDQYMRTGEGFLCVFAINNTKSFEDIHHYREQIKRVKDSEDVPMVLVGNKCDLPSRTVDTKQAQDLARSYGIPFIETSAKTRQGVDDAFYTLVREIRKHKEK

| SMILES | IC50 [1] | IC50 [2] | IC50 [3, 4] | IC50 [3, 5] | IC50 [3, 6] | IC50 ([3]; SW620 (KRAS G12V) cells) |
| --- | --- | --- | --- | --- | --- | --- |
| CCN(c1nc(OC[C@@]23CCCN2C[C@H](F)C3)nc2c(F)c(-c3ccc(F)c4sc(N)c(C#N)c34)c(C(F)(F)F)cc12)[C@@H]1CC(=O)N(C)C1 [Compound 520] | 100 to 1000 nM | 100 to 1000 nM | < 100 nM | < 100 nM | – | – |
| CCC(=O)N1CC[C@@H](N(CC)c2nc(OC[C@@]34CCCN3C[C@H](F)C4)nc3c(F)c(-c4ccc(F)c5sc(N)c(C#N)c45)c(C(F)(F)F)cc23)[C@H]1C (atropisomer, axis not shown) [Compound 523] | < 100 nM | ≤ 100 nM | < 100 nM | – | < 100 nM | – |
| CCN(c1nc(OC[C@@]23CCCN2C[C@H](F)C3)nc2c(F)c(-c3ccc(F)c4sc(N)c(C#N)c34)c(C(F)(F)F)cc12)[C@H]1CCN(C(=O)C(C)C)C1 (atropisomer, axis not shown) [Compound 468] | > 10000 nM | – | – | – | > 1000 nM | – |
| CCN(c1nc(OC[C@@]23CCCN2C[C@H](F)C3)nc2c(F)c(-c3ccc(F)c4sc(N)c(C#N)c34)c(C(F)(F)F)cc12)[C@@H]1C[C@H]2CCC(=O)N2C1 (atropisomer, axis not shown) [Compound 532] | 100 to 1000 nM | 100 to 1000 nM | < 100 nM | < 100 nM | – | – |
| CCN(c1nc(OC[C@@]23CCCN2C[C@H](F)C3)nc2c(F)c(-c3ccc(F)c4sc(N)c(C#N)c34)c(C(F)(F)F)cc12)[C@@H]1C[C@@H](C)N(C(C)=O)C1 (atropisomer, axis not shown) [Compound 527] | 100 to 1000 nM | 100 to 1000 nM | < 100 nM | < 100 nM | – | – |
| CCN(c1nc(OC[C@@]23CCCN2C[C@H](F)C3)nc2c(F)c(-c3ccc(F)c4sc(N)c(C#N)c34)c(C(F)(F)F)cc12)[C@H]1CCN(C(=O)N(C)C)C1 (atropisomer, axis not shown) [Compound 540, (3S)-3-[[7-(2-amino-3-cyano-7-fluoro-benzothiophen-4-yl)-8-fluoro-2-[[(2R,8S)-2-fluoro-1,2,3,5,6,7-hexahydropyrrolizin-8-yl]methoxy]-6-(trifluoromethyl)quinazolin-4-yl]-ethyl-amino]-N,N-dimethyl-pyrrolidine-1-carboxamide] | – | ≤ 100 nM | < 100 nM | – | – | – |
| CCN(c1nc(OC[C@@]23CCCN2C[C@H](F)C3)nc2c(F)c(-c3ccc(F)c4sc(N)c(C#N)c34)c(C(F)(F)F)cc12)[C@@H]1CCN(C(=O)C2CC2)[C@@H]1C (atropisomer, axis not shown) [Compound 524] | < 100 nM | ≤ 100 nM | < 100 nM | – | < 100 nM | – |
| CCN(c1nc(OC[C@@]23CCCN2C[C@H](F)C3)nc2c(F)c(-c3ccc(F)c4sc(N)c(C#N)c34)c(C(F)(F)F)cc12)[C@H]1CCN(C(=O)c2ccon2)C1 (atropisomer, axis not shown) [Compound 554] | < 100 nM | ≤ 100 nM | < 100 nM | < 100 nM | – | – |
| N#Cc1c(N)sc2c(F)ccc(-c3c(C(F)(F)F)cc4c(N5CCn6nc(N7CCOCC7)cc6C5)nc(OC[C@@]56CCCN5C[C@H](F)C6)nc4c3F)c12 [Compound 485] | 1000 to 10000 nM | – | – | < 100 nM | – | – |
| CN(C)C(=O)c1nn2c(c1Cl)CN(c1nc(OC[C@@]34CCCN3C[C@H](F)C4)nc3c(F)c(-c4ccc(F)c5sc(N)c(C#N)c45)c(C(F)(F)F)cc13)CC2 [Compound 517] | 100 to 1000 nM | 100 to 1000 nM | < 100 nM | < 100 nM | – | – |
| CCN(c1nc(OC[C@@]23CCCN2C[C@H](F)C3)nc2c(F)c(-c3ccc(F)c4sc(N)c(C#N)c34)c(C(F)(F)F)cc12)[C@H]1CCN(C(=O)OC)C1 (atropisomer, axis not shown) [Compound 541, methyl(3S)-3-[[7-(2-amino-3-cyano-7-fluoro-benzothiophen-4-yl)-8-fluoro-2-[[(2R,8S)-2-fluoro-1,2,3,5,6,7-hexahydropyrrolizin-8-yl]methoxy]-6-(trifluoromethyl)quinazolin-4-yl]-ethyl-amino]pyrrolidine-1-carboxylate] | < 100 nM | ≤ 100 nM | – | – | < 100 nM | < 100 nM |
| Cc1cc2n(n1)CCN(c1nc(OCC34CCCN3CC(F)C4)nc3c(F)c(-c4ccc(F)c5sc(N)c(C#N)c45)c(C(F)(F)F)cc13)C2 (centres unmarked) [Compound 484] | 1000 to 10000 nM | – | – | < 100 nM | – | – |
| CCN(c1nc(OC[C@@]23CCCN2C[C@H](F)C3)nc2c(F)c(-c3ccc(F)c4sc(N)c(C#N)c34)c(C(F)(F)F)cc12)[C@H]1C[C@H](C)N(C(=O)COC)C1 (atropisomer, axis not shown) [Compound 538] | < 100 nM | ≤ 100 nM | < 100 nM | < 100 nM | – | – |
| CCN(c1nc(OC[C@@]23CCCN2C[C@H](F)C3)nc2c(F)c(-c3ccc(F)c4sc(N)c(C#N)c34)c(C(F)(F)F)cc12)[C@H]1C[C@@H]2COC(=O)N2C1 (atropisomer, axis not shown) [Compound 519] | < 100 nM | ≤ 100 nM | < 100 nM | < 100 nM | – | – |
| CCN1C[C@@H](N(CC)c2nc(OC[C@@]34CCCN3C[C@H](F)C4)nc3c(F)c(-c4ccc(F)c5sc(N)c(C#N)c45)c(C(F)(F)F)cc23)CC1=O [Compound 529, 2-amino-4-(4-(ethyl((S)-1-ethyl-5-oxopyrrolidin-3-yl)amino)-8-fluoro-2-(((2R,7aS)-2-fluorotetrahydro-1H-pyrrolizin-7a(5H)-yl)methoxy)-6-(trifluoromethyl)quinazolin-7-yl)-7-fluorobenzo[b]thiophene-3-carbonitrile] | < 100 nM | ≤ 100 nM | < 100 nM | < 100 nM | – | – |
| CCN(c1nc(OC[C@@]23CCCN2C[C@H](F)C3)nc2c(F)c(-c3ccc(F)c4sc(N)c(C#N)c34)c(C(F)(F)F)cc12)[C@H]1C[C@H]2CN(C)C(=O)N2C1 (atropisomer, axis not shown; (aS)) [Compound 543, 2-amino-4-((S)-4-(ethyl((6S,7aS)-2-methyl-3-oxohexahydro-1H-pyrrolo[1,2-c]imidazol-6-yl)amino)-8-fluoro-2-(((2R,7aS)-2-fluorotetrahydro-1H-pyrrolizin-7a(5H)-yl)methoxy)-6-(trifluoromethyl)quinazolin-7-yl)-7-fluorobenzo[b]thiophene-3-carbonitrile] | < 100 nM | ≤ 100 nM | < 100 nM | < 100 nM | – | – |
| CCOC(=O)N1CC[C@H](N(CC)c2nc(OC[C@@]34CCCN3C[C@H](F)C4)nc3c(F)c(-c4ccc(F)c5sc(N)c(C#N)c45)c(C(F)(F)F)cc23)C1 [Compound 467] | 100 to 1000 nM | – | – | < 100 nM | – | – |
| CCN(c1nc(OC[C@@]23CCCN2C[C@H](F)C3)nc2c(F)c(-c3ccc(F)c4sc(N)c(C#N)c34)c(C(F)(F)F)cc12)[C@H]1C[C@H](C)N(C(=O)C2CC2)C1 [Compound 470] | < 100 nM | – | – | < 100 nM | – | – |
| CCN(c1nc(OC[C@@]23CCCN2C[C@H](F)C3)nc2c(F)c(-c3ccc(F)c4sc(N)c(C#N)c34)c(C(F)(F)F)cc12)C1C[C@@H](C)N(C(=O)C2CC2)C1 (some centres unmarked) [Compound 516] | 100 to 1000 nM | 100 to 1000 nM | < 100 nM | < 100 nM | – | – |
| CCN(c1nc(OC[C@@]23CCCN2C[C@H](F)C3)nc2c(F)c(-c3ccc(F)c4sc(N)c(C#N)c34)c(C(F)(F)F)cc12)[C@H]1C[C@H](C)N(C(=O)C2COC2)C1 (atropisomer, axis not shown) [Compound 539] | < 100 nM | 100 to 1000 nM | < 100 nM | < 100 nM | – | – |
| CCN(c1nc(OC[C@@]23CCCN2C[C@H](F)C3)nc2c(F)c(-c3ccc(F)c4sc(N)c(C#N)c34)c(C(F)(F)F)cc12)[C@@H]1C[C@@H]2CCC(=O)N2C1 [Compound 511] | 100 to 1000 nM | 1000 to 10000 nM | < 100 nM | < 100 nM | – | – |
| CCN(c1nc(OC[C@@]23CCCN2C[C@H](F)C3)nc2c(F)c(-c3ccc(F)c4sc(N)c(C#N)c34)c(C(F)(F)F)cc12)[C@@H]1C[C@H](C)N(C(C)=O)C1 (atropisomer, axis not shown) [Compound 534] | 100 to 1000 nM | 100 to 1000 nM | < 100 nM | < 100 nM | – | – |
| CN(C)C(=O)[C@@H]1CC[C@@H](N(C)c2nc(OC[C@@]34CCCN3C[C@H](F)C4)nc3c(F)c(-c4ccc(F)c5sc(N)c(C#N)c45)c(C(F)(F)F)cc23)C1 (atropisomer, axis not shown) [Compound 512] | 100 to 1000 nM | 100 to 1000 nM | < 100 nM | < 100 nM | – | – |
| CCC(=O)N1C[C@H](N(CC)c2nc(OC[C@@]34CCCN3C[C@H](F)C4)nc3c(F)c(-c4ccc(F)c5sc(N)c(C#N)c45)c(C(F)(F)F)cc23)C[C@@H]1C (atropisomer, axis not shown) [Compound 533] | 100 to 1000 nM | 100 to 1000 nM | < 100 nM | < 100 nM | – | – |
| CCN(c1nc(OC[C@@]23CCCN2C[C@H](F)C3)nc2c(F)c(-c3ccc(F)c4sc(N)c(C#N)c34)c(C(F)(F)F)cc12)[C@H]1CCS(=O)(=O)C1 (atropisomer, axis not shown) [Compound 492] | < 100 nM | – | – | – | < 100 nM | – |
